The target in experiment [1] is T1, UrdA′ (two-domain UrdA) (Shewanella oneidensis, UniProt Q8CVD0).
T1 construct: clamp and FAD domains, residues 130-582, C-terminal 6xHis kept, N-terminal FMN domain absent; E. coli TUNER(DE3) (mutants BL21(DE3)); mostly monomer
The experiment can be described thus: X-ray structure ([…] Å). It counts as binding. The following applies: no substrate bound; sulfate in active site; FAD also in 6T87 and 6T88.

Experiment [2] has as its target T1, UrdA′ (two-domain UrdA). Kind of experiment: X-ray structure ([…] Å); activity inhibition. The following applies: ADP in the FAD-binding site; no urocanate bound, glycerol in substrate site.

T1 sequence (Q8CVD0 130-582): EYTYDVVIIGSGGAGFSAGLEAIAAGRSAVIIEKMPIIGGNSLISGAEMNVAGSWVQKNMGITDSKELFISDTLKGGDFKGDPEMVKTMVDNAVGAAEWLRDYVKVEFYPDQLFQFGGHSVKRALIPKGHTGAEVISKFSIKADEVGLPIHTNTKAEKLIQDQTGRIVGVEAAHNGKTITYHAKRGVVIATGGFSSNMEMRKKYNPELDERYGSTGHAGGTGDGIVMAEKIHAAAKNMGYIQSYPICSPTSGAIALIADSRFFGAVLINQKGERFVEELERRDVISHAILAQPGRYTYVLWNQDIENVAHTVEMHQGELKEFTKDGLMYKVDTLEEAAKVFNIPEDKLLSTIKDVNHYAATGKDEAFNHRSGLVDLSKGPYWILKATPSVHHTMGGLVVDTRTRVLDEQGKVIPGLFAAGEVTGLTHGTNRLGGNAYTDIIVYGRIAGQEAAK

As to `Cc1cc2nc3c(=O)[nH]c(=O)nc-3n(C[C@H](O)[C@H](O)[C@H](O)COP(=O)(O)OP(=O)(O)OC[C@H]3O[C@@H](n4cnc5c(N)ncnc54)[C@H](O)[C@@H]3O)c2cc1C` [FAD], the “X-ray structure (2.56 Å)” value at UrdA′ (two-domain UrdA) [1] is 6T86 for apo-FAD, 6T87 for uro-FAD, and 6T88 for imp-FAD.
Regarding `Nc1ncnc2c1ncn2[C@@H]1O[C@H](COP(=O)(O)OP(=O)(O)O)[C@@H](O)[C@H]1O` [ADP], on UrdA′ (two-domain UrdA) [2], the “X-ray structure (1.1 Å); activity inhibition” value is “supported by the ADP-induced inhibition of UrdA′ activity”.

The values are drawn from PMC7921117, “Structural characterization of the microbial enzyme urocanate reductase mediating imidazole propionate production” (Nature Communications, 2021).
